Data from patent US20110052697A1, “Aptamer-Directed Drug Delivery” (GWANGJU INSTITUTE OF SCIENCE & TECHNOLOGY, priority 2006, published 2011).
Converted amounts (≈) assume the structure as drawn. “Also recorded” adds a separate entry of the source.

Legend:
[1] = cited from earlier work
PC3 cells [2] = assay: Flow cytometry of cellular uptake, PC3; assay type: cell-based; conditions: PC3 compared to LNCaP; 1.5 μM
Protocol: (§1) Cellular uptake of the complex was confirmed using flow cytometry (EPICS XL Flow cytometry systems, Beckman Coulter, Inc). Briefly, 5×10^4 cells were seeded onto 12 well plates (n=4) for 24 hours followed by incubation for 2 hours with the complex solution (1.0:1.1 mole ratio of Dox:aptamer) such that final Dox concentration was 1.5 μM. Cells were washed with PBS twice, trypsinized, centrifuged at 1000 rpm for 3 minutes and resuspended in PBS for FACS analysis. Data were processed with EXPO 32 software.

PC3 (PSMA−) cells = assay: Cell uptake by confocal laser scanning microscopy, PC3; assay type: cell-based; conditions: 1.5 μM Dox, 2 hours
Protocol: (§2) Prostrate cancer cell lines LNCaP(PSMA+) and PC3 (PSMA−) (5*10^3 cells/mL) were grown in chamber slides in RPMI 1640 media with 10% fetal bovine serum for 24 hours to attain 70% confluence. Before incubation with complex, cells were pre-incubated with OPTIMEM media for 30 minutes, followed by incubation with physical complex of 1.0:1.1 molar ratio of Dox:aptamer with a doxorubicin concentration of 1.5 μM for 2 hours, the cells were washed with PBS twice, fixed with 3.5% HCHO for 10 minutes, washed, mounted with Vector mounting media and cover slipped. Fluorescence images were obtained (Carl Zeiss LSM 510, Ar laser 488, long pass filter 560,63× water lens.)

LNCaP cells [3] = conditions: MTT, QD 100 nM, Dox 5 μM
Protocol: (§3) The prostate LNCaP and PC3 cell lines were grown in 24-well plates in RPMI-1640 and Ham's F-12K medium, respectively, both supplemented with 100 units/ml aqueous penicillin G, 100 μg/ml streptomycin, and 10% FBS (fetal bovine serum) at concentrations to allow 70% confluence in 24 hours (i.e., 40,000 cells/cm^2). […] Cells were incubated with the conjugates for 3 hours at 37° C., washed two times with PBS (1 ml per well), and incubated in fresh growth media for a total of 72 hours. Cell viability was assessed colorimetrically with the MTT reagent (ATCC) following the standard protocol provided by the manufacturer. The absorbance was read with a microplate reader at 570 nm.

PC3 cells [4] = conditions: MTT, QD 100 nM, Dox 5 μM
Protocol: as §3

A10 PSMA aptamer = assay: Fluorescence quenching titration of Dox with the A10 PSMA aptamer (Hill plot); assay type: binding; conditions: FIG. 2 inset
Protocol: A complex comprising the A10 PSMA aptamer (RNA-Tec, Belgium) and doxorubicin (Dox) was generated through the stepwise addition of increasing molar ratio of aptamer to a fixed concentration of doxorubicin (3 μM) in the presence of 0.1 M sodium acetate, 0.05 M sodium chloride, and 0.01 M magnesium chloride. The fluorescence of Dox was measured at 35 minutes by exciting the solution at 480 nm and recording the emission in the interval of 500 nm-720 nm (1.5 mm slit) on a Shimadzu RF-PC100 spectrofluorophotometer.

LNCaP(PSMA+) cells = assay: Cell uptake by confocal laser scanning microscopy, LNCaP; assay type: cell-based; conditions: 1.5 μM Dox, 2 hours
Protocol: as §2

LNCaP cells [5] = assay: Flow cytometry of cellular uptake, LNCaP; assay type: cell-based; conditions: LNCaP compared to PC3; 1.5 μM
Protocol: as §1

LNCaP cells [6] = conditions: cited from earlier work
PC3 cells [7] = conditions: cited from earlier work

## CC(=O)O[C@@]12CO[C@@H]1C[C@H](O)[C@@]1(C)C(=O)[C@H](O)C3=C(C)[C@@H](OC(=O)[C@H](O)[C@@H](NC(=O)OC(C)(C)C)c4ccccc4)C[C@@](O)([C@@H](OC(=O)c4ccccc4)[C@H]21)C3(C)C [Dtxl, docetaxel]
[1]
  water solubility: 0.025 µg/mL (≈ 0.0309 µM)

## COc1cccc2c1C(=O)c1c(O)c3c(c(O)c1C2=O)C[C@@](O)(C(=O)CO)C[C@@H]3O[C@H]1C[C@H](N)[C@H](O)[C@H](C)O1 [free Dox, doxorubicin]
PC3 cells [2]
  staining by flow cytometry: near-identical staining
PC3 (PSMA−) cells
  uptake / staining by confocal microscopy: readily diffuses through the plasma membrane
LNCaP cells [3]
  cytotoxicity: equipotent
PC3 cells [4]
  cytotoxicity: equipotent
A10 PSMA aptamer
  Kd expressed as equiv of the aptamer: 0.52 equiv
LNCaP(PSMA+) cells
  uptake / staining by confocal microscopy: readily diffuses through the plasma membrane; also recorded: almost exclusively stains nuclei
LNCaP cells [5]
  staining by flow cytometry: near-identical staining

B1: free aptamer: A10 RNA aptamer that binds to the PSMA protein on the surface of prostate cancer cells (Lupold et al., 2002) (nucleic acid)
chain: GGGAGGACGAUGCGGAUCAGCCAUGUUUACGUCACUCCUUGUCAAUCCUCAUCGGCAGACGACUCGCCCGA
modifications: chemistry not given here
LNCaP cells [6]
  cytotoxicity, previously reported: no cytotoxicity
PC3 cells [7]
  cytotoxicity, previously reported: no cytotoxicity
